Assay results taken from ChEMBL document CHEMBL1201862, “PubChem BioAssay data set” (2004).
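All cell lines were grown in 96-well plates and treated with compound for 48 hours. GI50 = concentration required for 50% inhibition of growth.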 Calls of active or inactive are those of the source. No stated cut-off is given here; in the data, active = GI50 up to about 1.1 µM and inactive = higher.

Legend:
Assay in all cases: inhibition of tumour cell growth, NCI panel, 48 h
A498 = system: A498
CCRF-CEM = system: CCRF-CEM
HCT-15 = system: HCT-15
HT-29 = system: HT-29
KM12 = system: KM12
MDA-N = system: MDA-N
Malme-3M = system: Malme-3M
NCI-H226 = system: NCI-H226
NCI/ADR-RES = system: NCI/ADR-RES
RPMI-8226 = system: RPMI-8226
RXF 393 = system: RXF 393
SK-MEL-28 = system: SK-MEL-28
SK-MEL-5 = system: SK-MEL-5
SN12C = system: SN12C
T47D = system: T47D
TK-10 = system: TK-10
UACC-257 = system: UACC-257
HCC 2998 = system: HCC 2998
UACC-62 = system: UACC-62

SMILES | GI50 (A498) | GI50 (CCRF-CEM) | GI50 (HCT-15) [µM] | GI50 (HT-29) | GI50 (KM12) | GI50 (MDA-N) | GI50 (Malme-3M) | GI50 (NCI-H226) | GI50 (NCI/ADR-RES) | GI50 (RPMI-8226) | GI50 (RXF 393) | GI50 (SK-MEL-28) | GI50 (SK-MEL-5) | GI50 (SN12C) | GI50 (T47D) | GI50 (TK-10) | GI50 (UACC-257) | GI50 (HCC 2998) | GI50 (UACC-62)
Cc1ccc([N+](=O)[O-])cc1S(=O)(=O)Nc1ccc(C2=NN(C(=O)c3ccccc3)C(c3ccccc3O)C2)cc1 (stereo not given) | 12.9 µM (inactive) | 17.5 µM (inactive) | 13.2 | 17.7 µM (inactive) | 28.6 µM (inactive) | 21.5 µM (inactive) | 12.6 µM (inactive) | 14.9 µM (inactive) | 27 µM (inactive) | 11.5 µM (inactive) | 12.3 µM (inactive) | 28.2 µM (inactive) | 15.8 µM (inactive) | 13.5 µM (inactive) | 11.8 µM (inactive) | 13.7 µM (inactive) | 17.3 µM (inactive) | – | –
C=C1CC(C)(COc2ccc3c(C)cc(=O)oc3c2)OC1=O (stereo not given) | – | 0.229 µM (active) | 1.47 | 1.03 µM (active) | 3.66 µM (inactive) | 0.695 µM (active) | 1.29 µM (inactive) | 8.69 µM (inactive) | 1.95 µM (inactive) | 0.414 µM (active) | – | 2.72 µM (inactive) | 1.31 µM (inactive) | 3.86 µM (inactive) | 1.74 µM (inactive) | 1.26 µM (inactive) | 1.25 µM (inactive) | 3.5 µM (inactive) | 1.69 µM (inactive)
Nc1nc(Nc2ccc(Cl)cc2)sc1C(=O)c1cccs1 | 19.1 µM (inactive) | 53.7 µM (inactive) | > 100 | 6.18 µM (inactive) | > 100 µM (inactive) | > 100 µM (inactive) | 99.3 µM (inactive) | 24.7 µM (inactive) | 50.6 µM (inactive) | > 100 µM (inactive) | 17.2 µM (inactive) | > 100 µM (inactive) | 38.2 µM (inactive) | 21 µM (inactive) | 77.8 µM (inactive) | 13.1 µM (inactive) | > 100 µM (inactive) | – | > 100 µM (inactive)
COC(=O)c1sc(=S)sc1SCc1ccc(CSc2sc(=S)sc2C(=O)OC)cc1 | > 100 µM (inactive) | > 100 µM (inactive) | > 100 | > 100 µM (inactive) | > 100 µM (inactive) | > 100 µM (inactive) | > 100 µM (inactive) | > 100 µM (inactive) | > 100 µM (inactive) | – | > 100 µM (inactive) | > 100 µM (inactive) | > 100 µM (inactive) | > 100 µM (inactive) | > 100 µM (inactive) | > 100 µM (inactive) | > 100 µM (inactive) | > 100 µM (inactive) | > 100 µM (inactive)
Cc1nc2cc(F)c(F)cc2[nH]c1=O | – | > 100 µM (inactive) | > 100 | > 100 µM (inactive) | > 100 µM (inactive) | > 100 µM (inactive) | > 100 µM (inactive) | > 100 µM (inactive) | > 100 µM (inactive) | > 100 µM (inactive) | > 100 µM (inactive) | > 100 µM (inactive) | > 100 µM (inactive) | > 100 µM (inactive) | > 100 µM (inactive) | > 100 µM (inactive) | > 100 µM (inactive) | > 100 µM (inactive) | > 100 µM (inactive)
O=[N+]([O-])c1ccc(OP(=O)(O)OCC2OC(CP(=O)(O)O)C(O)C2O)cc1 (stereo not given) | > 100 µM (inactive) | > 100 µM (inactive) | > 100 | > 100 µM (inactive) | > 100 µM (inactive) | > 100 µM (inactive) | – | – | > 100 µM (inactive) | – | > 100 µM (inactive) | > 100 µM (inactive) | > 100 µM (inactive) | > 100 µM (inactive) | > 100 µM (inactive) | > 100 µM (inactive) | > 100 µM (inactive) | > 100 µM (inactive) | > 100 µM (inactive)
O[C@H]1[C@H](O)[C@@H](O)[C@@]2(O)CC[C@@H]1N2 | > 100 µM (inactive) | > 100 µM (inactive) | > 100 | > 100 µM (inactive) | > 100 µM (inactive) | > 100 µM (inactive) | > 100 µM (inactive) | > 100 µM (inactive) | > 100 µM (inactive) | – | > 100 µM (inactive) | > 100 µM (inactive) | > 100 µM (inactive) | > 100 µM (inactive) | > 100 µM (inactive) | > 100 µM (inactive) | > 100 µM (inactive) | > 100 µM (inactive) | > 100 µM (inactive)
O=C(c1cccs1)N(C(=S)OC12CC3CC(CC(C3)C1)C2)c1ccccc1 | 33.2 µM (inactive) | 15.3 µM (inactive) | 29.8 | 31.8 µM (inactive) | 31.9 µM (inactive) | 31.4 µM (inactive) | 43.2 µM (inactive) | 33.3 µM (inactive) | 29.6 µM (inactive) | – | 62.2 µM (inactive) | 54.8 µM (inactive) | 22.1 µM (inactive) | 27 µM (inactive) | 76.7 µM (inactive) | 44 µM (inactive) | 39.5 µM (inactive) | 32.6 µM (inactive) | 25.6 µM (inactive)
